Results on 11 compounds are retold here after patent publication US7468384B2, “Microbicidal composition” (Rohm and Haas Company, priority 2004, dated 2008).

What all share (format): cell-based
The test system of assay [1] is Escherichia coli (E. coli—ATCC #8739). Kind of assay: Synergy test, microtiter plate high resolution MIC assay, bacterium. As to conditions: E. coli 8739, M9GY; for Qb: alone or mixed with BIT. The source says:
(§1) One measure of synergism is the industrially accepted method described by Kull, F. C.; Eisman, P. C.; Sylwestrowicz, H. D. and Mayer, R. L., in Applied Microbiology 9:538-541 (1961), using the ratio determined by the formula: Qa/QA+Qb/QB=Synergy Index (“SI”) wherein: • QA=concentration of compound A (first component) in ppm, acting alone, which produced an end point (MIC of Compound A). • Qa=concentration of compound A in ppm, in the mixture, which produced an end point. • QB=concentration of compound B (second component) in ppm, acting alone, which produced an end point (MIC of Compound B). • Qb=concentration of compound B in ppm, in the mixture, which produced an end point.
(§2) When the sum of Qa/QA and Qb/QB is greater than one, antagonism is indicated. […] The lower the SI, the greater the synergy shown by that particular mixture. The minimum inhibitory concentration (MIC) of a microbicide is the lowest concentration tested under a specific set of conditions that prevents the growth of added microorganisms.
Synergy tests were conducted using standard microtiter plate assays with media designed for optimal growth of the test microorganism. Soybean Casein Digest Broth (Tryptic Soy Broth, TSB medium) or minimal salt medium supplemented with 0.2% glucose and 0.1% yeast extract (M9GY medium) was used for testing bacteria; Potato Dextrose Broth (PDB medium) was used for testing yeast and mold. […] High resolution MICs were determined by adding varying amounts of microbicide to one column of a microtitre plate and doing subsequent ten-fold dilutions using an automated liquid handling system to obtain a series of endpoints ranging from 2 ppm to 10,000 ppm active ingredient.
(§3) For MI combinations, the synergy of the combinations of the present invention was determined against two bacteria, Escherichia coli (E. coli—ATCC #8739) or Pseudomonas aeruginosa (P. aeruginosa—ATCC #15442), a yeast, Candida albicans (C. albicans—ATCC 10231), and a mold, Aspergillus niger (A. niger—ATCC 16404). The bacteria were used at a concentration of about 5×10^6 bacteria per mL and the yeast and mold at 5×10^5 fungi per mL. These microorganisms are representative of natural contaminants in many consumer and industrial applications. […] (bacteria).

For assay [2], the system named is Pseudomonas aeruginosa (P. aeruginosa—ATCC #15442). The description is as above. Further details: key to SI (calculated synergy index) / SI (synergy index): SI = Qa/QA + Qb/QB (mixture vs. alone end-point concentrations). As to conditions: P. aeruginosa 15442, M9GY; for Qb: alone or mixed with BIT; for MIC: Pseudomonas aeruginosa.
Description: as §1, §2
(§4) Synergy tests were conducted using standard microtiter plate assays with media designed for optimal growth of the test microorganism. Soybean Casein Digest Broth (Tryptic Soy Broth, TSB medium) or minimal salt medium supplemented with 0.2% glucose and 0.1% yeast extract (M9GY medium) was used for testing bacteria; Potato Dextrose Broth (PDB medium) was used for testing yeast and mold. In this method, a wide range of combinations of microbicides was tested by conducting high resolution MIC assays in the presence of various concentrations of MI. High resolution MICs were determined by adding varying amounts of microbicide to one column of a microtitre plate and doing subsequent ten-fold dilutions using an automated liquid handling system to obtain a series of endpoints ranging from 2 ppm to 10,000 ppm active ingredient.
as §3
(§5) For BIT combinations, the synergy of the combinations of the present invention was determined against a bacterium, Pseudomonas aeruginosa (P. aeruginosa—ATCC #15442), a yeast, Candida albicans (C. albicans—ATCC 10231), and a mold, Aspergillus niger (A. niger—ATCC 16404). The bacteria were used at a concentration of about 5×10^6 bacteria per mL and the yeast and mold at 5×10^5 fungi per mL. These microorganisms are representative of natural contaminants in many consumer and industrial applications. […] (yeast and mold) or 30° C. (bacteria).

Assay [3] has as its system Aspergillus niger (A. niger—ATCC 16404). The assay is described as follows: Synergy test, microtiter plate high resolution MIC assay, mold. Further details: key to SI (calculated synergy index) / SI (synergy index): SI = Qa/QA + Qb/QB (mixture vs. alone end-point concentrations). Conditions: for MIC: Aspergillus niger.
Description: as §1, §2, §4, §3, §5

The test system of assay [4] is Candida albicans (C. albicans—ATCC 10231). Kind of assay: Synergy test, microtiter plate high resolution MIC assay, yeast. As to conditions: C. albicans 10231, PDB; for Qb: alone or mixed with BIT.
Description: as §1, §2, §4, §3, §5

The mark [5] stands for this setting: Imidalozidinyl urea concentration giving end point (MIC), 48 hours.
[6] abbreviates: synergy index BIT + Imidalozidinyl urea, 48 hours.
The mark [7] stands for this setting: caprylyl glycol concentration giving end point (MIC), 24 hours.
The mark [8] stands for this setting: synergy index BIT + caprylyl glycol, 24 hours.
Where [9] appears, read: benzyl alcohol concentration giving end point (MIC), 48 hours.
The mark [10] stands for this setting: synergy index BIT + benzyl alcohol, 48 hours.

Where two headings read alike, the source gives them in different places.

As to “imidazolidinyl urea [Imidalozidinyl urea]”, the Qb in assay [1] (setting [5]) is 400 ppm; in assay [2] (setting [5]) it was 400 ppm; in assay [3] (Imidalozidinyl urea concentration giving end point (MIC), alone or mixed with BIT, A. niger 16404, PDB, 3 days), 8000 ppm; in assay [4] (Imidalozidinyl urea concentration giving end point (MIC), 24 hours), 10000 ppm. Besides, the SI in assay [1] (setting [6]) was 1.00; in assay [2] (setting [6]), 1.00; in assay [3] (synergy index BIT + Imidalozidinyl urea, A. niger 16404, PDB, 3 days) it was 1.00; in assay [4] (synergy index BIT + Imidalozidinyl urea, 24 hours), 1.00.
For the compound `CCCCCCC(O)CO` (stereo not shown) [Caprylyl glycol], the “MIC of component acting alone (QA / QB)” value in assay [1] (24 hours) is 2000 ppm; in assay [2] (48 hours), 3000 ppm; in assay [3] (A. niger 16404, PDB, 1 week), 3000 ppm; in assay [4] (48 hours) it was 2000 ppm. The Qb in assay [1] (setting [7]) is 2000 ppm; in assay [2] (setting [7]), 3000 ppm; in assay [3] (caprylyl glycol concentration giving end point (MIC), alone or mixed with BIT, A. niger 16404, PDB, 1 week) it was 2000 ppm; in assay [4] (setting [7]), 2000 ppm. The SI is given as 1.00 in assay [1] (setting [8]); 1.00 in assay [2] (setting [8]); 1.00 in assay [3] (synergy index BIT + caprylyl glycol, A. niger 16404, PDB, 1 week); 1.00 in assay [4] (setting [8]).
As for `COC(=O)c1ccc(O)cc1` [methylparaben], the Qb in assay [2] (methylparaben concentration giving end point (MIC), 48 hours) is 3000 ppm. Further, the SI is reported as 1.00 in assay [2] (synergy index BIT + methylparaben, 48 hours) and 1.00 in assay [3] (synergy index BIT + methylparaben, A. niger 16404, PDB, 4 days). In assay [3] (ATCC16404, 96 h, read-out: Qb), the MIC is 800 µg/mL.
On to `OCc1ccccc1` [Benzyl alcohol], for which the Qb in assay [1] (benzyl alcohol concentration giving end point (MIC), 24 hours) is given as 4000 ppm; in assay [2] (setting [9]), 200 ppm; in assay [4] (setting [9]), 4000 ppm. The SI in assay [1] (synergy index BIT + benzyl alcohol, 24 hours) is on record as 1.00; in assay [2] (setting [10]) it was 1.00; in assay [3] (synergy index BIT + benzyl alcohol, A. niger 16404, PDB, 1 week), 1.00; in assay [4] (setting [10]), 1.00. Moreover, the MIC in assay [3] (ATCC16404, 168 h, benzyl alcohol concentration giving end point (MIC), alone or mixed with BIT, A. niger 16404, PDB, 1 week, read-out: Qb) is 5000 µg/mL.
Take `CCOC(=O)c1ccc(O)cc1` [ethylparaben]: the Qb in assay [2] (ethylparaben concentration giving end point (MIC), 48 hours) is on record as 3000 ppm. Moreover, the SI was 1.00 in assay [2] (synergy index BIT + ethylparaben, 48 hours) and 1.00 in assay [3] (synergy index BIT + ethylparaben, A. niger 16404, PDB, 3 days). For the same compound, the MIC in assay [3] (ATCC16404, 72 h, ethylparaben concentration giving end point (MIC), alone or mixed with BIT, A. niger 16404, PDB, 3 days, read-out: Qb) is 2000 µg/mL.
As to `CCCOC(=O)c1ccc(O)cc1` [propylparaben], the MIC in assay [2] (ATCC15442, Table 23, propylparaben with BIT, 24 hours, alone where Qa = 0, read-out: Qb (second component at end point, MIC)) was 10000 µg/mL; in assay [3] (ATCC16404, 72 h, Table 23, propylparaben with BIT, A. niger 16404, PDB, 3 days, alone where Qa = 0, read-out: Qb (second component at end point, MIC)), 1000 µg/mL. Moreover, the “SI (synergy index)” value in assay [2] (Table 23, 24 hours) is 1.00; in assay [3] (Table 23, A. niger 16404, PDB, 3 days) it was 1.00.
As to `CNC(=O)c1ccccc1SSc1ccccc1C(=O)NC` [2,2′-dithiobis(N-methylbenzamide)], in assay [2] (2,2′-dithiobis(N-methylbenzamide) concentration giving end point (MIC), 48 hours), the Qb is recorded as 200 ppm. Moreover, the SI in assay [2] (synergy index BIT + 2,2′-dithiobis(N-methylbenzamide), 48 hours) is reported as 1.00; in assay [3] (synergy index BIT + 2,2′-dithiobis(N-methylbenzamide), A. niger 16404, PDB, 3 days) it was 1.00. Also, the MIC in assay [3] (ATCC16404, 72 h, 2,2′-dithiobis(N-methylbenzamide) concentration giving end point (MIC), alone or mixed with BIT, A. niger 16404, PDB, 3 days, read-out: Qb) was 1000 µg/mL.
As for Benzalkonium chloride, the “SI (calculated synergy index)” value in assay [2] (Table 8, 48 hours) is given as 1.00; in assay [3] (Table 8, A. niger 16404, PDB, 1 week), 1.00. For the same compound, the “Qb: end-point activity (MIC) of second component in the mixture (alone, QB, where Qa = 0)” value is listed as 40 ppm in assay [2] (Table 8, 48 hours, B = Benzalkonium chloride) and 200 ppm in assay [3] (Table 8, A. niger 16404, PDB, 1 week, B = Benzalkonium chloride).
As to zinc pyrithione, the “SI (synergy index)” value is listed as 1.00 in assay [2] (Table 28, 48 hours) and 1.00 in assay [3] (Table 28, A. niger 16404, PDB, 1 week). The “Qb (second component at end point, MIC)” value was 80 ppm in assay [2] (Table 28, zinc pyrithione with BIT, 48 hours, alone where Qa = 0) and 8 ppm in assay [3] (Table 28, zinc pyrithione with BIT, A. niger 16404, PDB, 1 week, alone where Qa = 0).
As for `O=C(O)CN(CCN(CC(=O)O)CC(=O)O)CC(=O)O` [EDTA, ethylenediamine tetraacetic acid], in assay [3] (ATCC16404, 96 h, read-out: Qb), the MIC is 2000 µg/mL. Moreover, in assay [3] (synergy index BIT + EDTA, A. niger 16404, PDB, 4 days), the SI is listed as 1.00.
In the case of `O=C([O-])CNCO.[Na+]` [Sodium hydroxymethylglycinate], the MIC is 2000 µg/mL in assay [2] (ATCC15442, 24 h, read-out: Qb (second component at end point, MIC), Table 27, Sodium hydroxymethylglycinate with BIT, 24 hours, alone where Qa = 0) and 600 µg/mL in assay [3] (ATCC16404, 72 h, read-out: Qb (second component at end point, MIC)). Further, the “SI (synergy index)” value in assay [2] (Table 27, 24 hours) was 1.00; in assay [3] (Table 27, A. niger 16404, PDB, 3 days), 1.00.
